Results taken from US20120165325A1, “Stable forms of N-(2,6-Dimethyl-4-morpholin-4-yl-phenyl)-3,3-dimethyl-butyramide” (H. Lundbeck A/S, priority 2009, published 2012).

Test system: Male NMRI mice
Experiment: Amphetamine sensitisation: inhibition of the sensitised behavioural response to amphetamine
Format: in vivo, mouse
Details: Mus musculus; amphetamine-pretreated mice; s.c. 30 min before D-amphetamine challenge 1.25 mg/kg s.c.; 30 min test; S.D. in brackets
Description: Subjects. […] The animals were housed 6 mice pr cage in a 12-hr light/dark cycle under controlled conditions for regular in-door temperature (21±2° C.) and humidity (55±5%) with food and tap water available ad libitum.
Experimental procedure. […] 5×8 infrared light sources and photocells interspaced by 4 cm monitor the locomotor activity.
Administration of compounds.
Data analyses. […] A therapeutic index value can subsequently be calculated by dividing the first ED50 by the second.

Cc1cc(N2CCOCC2)cc(C)c1NC(=O)CC(C)(C)C [N-(2,6-dimethyl-4-morpholin-4-yl-phenyl)-3,3-dimethyl-butyramide]
ED50: 1.6 mg/kg
